One compound from ChEMBL document CHEMBL1128530, “Alpha- and beta-adrenoceptors: from the gene to the clinic. 1. Molecular biology and adrenoceptor subclassification” (J Med Chem, 1995) can be followed below.

The target in test [1] is T1, Alpha-2 adrenergic receptor (Mus musculus, UniProt P30545+Q01338+Q01337).
T1 sequence (P30545 whole entry): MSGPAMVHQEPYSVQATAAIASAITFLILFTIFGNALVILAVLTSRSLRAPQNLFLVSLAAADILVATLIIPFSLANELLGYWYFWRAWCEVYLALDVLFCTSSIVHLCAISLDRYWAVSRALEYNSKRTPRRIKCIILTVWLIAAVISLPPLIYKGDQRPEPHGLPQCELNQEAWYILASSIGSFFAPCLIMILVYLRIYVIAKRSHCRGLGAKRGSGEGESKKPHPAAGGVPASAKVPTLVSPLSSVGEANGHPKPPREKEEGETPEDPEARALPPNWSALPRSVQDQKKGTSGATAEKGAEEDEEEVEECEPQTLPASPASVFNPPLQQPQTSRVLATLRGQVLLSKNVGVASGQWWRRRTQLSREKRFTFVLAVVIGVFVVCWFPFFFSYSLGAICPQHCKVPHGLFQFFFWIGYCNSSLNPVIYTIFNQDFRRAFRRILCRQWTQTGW
T1 sequence (Q01338 whole entry): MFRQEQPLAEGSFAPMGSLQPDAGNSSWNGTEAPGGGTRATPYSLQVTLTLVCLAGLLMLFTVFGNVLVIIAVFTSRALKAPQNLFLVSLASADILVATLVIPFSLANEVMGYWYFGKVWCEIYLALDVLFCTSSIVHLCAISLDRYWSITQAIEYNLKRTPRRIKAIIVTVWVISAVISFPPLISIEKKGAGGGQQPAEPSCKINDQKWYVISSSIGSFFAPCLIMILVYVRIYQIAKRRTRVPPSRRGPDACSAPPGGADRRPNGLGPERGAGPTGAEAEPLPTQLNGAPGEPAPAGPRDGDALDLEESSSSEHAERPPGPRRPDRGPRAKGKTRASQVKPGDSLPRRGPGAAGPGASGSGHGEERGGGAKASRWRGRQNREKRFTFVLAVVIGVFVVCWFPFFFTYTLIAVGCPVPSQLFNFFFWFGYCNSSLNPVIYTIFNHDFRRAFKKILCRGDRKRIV
T1 sequence (Q01337 whole entry): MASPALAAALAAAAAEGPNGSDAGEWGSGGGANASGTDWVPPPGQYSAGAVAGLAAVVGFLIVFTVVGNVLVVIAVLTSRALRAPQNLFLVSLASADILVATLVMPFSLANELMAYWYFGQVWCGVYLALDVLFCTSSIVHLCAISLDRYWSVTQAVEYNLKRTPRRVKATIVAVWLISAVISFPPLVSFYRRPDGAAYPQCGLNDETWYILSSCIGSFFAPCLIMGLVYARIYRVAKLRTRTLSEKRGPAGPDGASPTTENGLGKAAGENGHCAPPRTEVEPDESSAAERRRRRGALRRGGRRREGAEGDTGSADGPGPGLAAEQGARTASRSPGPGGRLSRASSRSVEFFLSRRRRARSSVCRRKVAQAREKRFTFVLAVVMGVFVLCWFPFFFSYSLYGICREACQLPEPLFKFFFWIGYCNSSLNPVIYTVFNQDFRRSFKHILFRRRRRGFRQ
As to the kind of experiment: Compound was evaluated for inhibition of binding of [3H]MK-91 to Alpha-2 adrenergic receptor in mouse Malpha2-10H clone. The test is classed as protein assay.

Test [2] deals with T1, Alpha-2 adrenergic receptor. In words: Compound was evaluated for inhibition of binding of [3H]MK-91 to Alpha-2 adrenergic receptor in mouse Malpha2-4H. In kind it is protein assay.
In test [3] the target is T2, Alpha-2A adrenergic receptor (Bos taurus, UniProt Q28838).
T2 sequence (Q28838 whole entry): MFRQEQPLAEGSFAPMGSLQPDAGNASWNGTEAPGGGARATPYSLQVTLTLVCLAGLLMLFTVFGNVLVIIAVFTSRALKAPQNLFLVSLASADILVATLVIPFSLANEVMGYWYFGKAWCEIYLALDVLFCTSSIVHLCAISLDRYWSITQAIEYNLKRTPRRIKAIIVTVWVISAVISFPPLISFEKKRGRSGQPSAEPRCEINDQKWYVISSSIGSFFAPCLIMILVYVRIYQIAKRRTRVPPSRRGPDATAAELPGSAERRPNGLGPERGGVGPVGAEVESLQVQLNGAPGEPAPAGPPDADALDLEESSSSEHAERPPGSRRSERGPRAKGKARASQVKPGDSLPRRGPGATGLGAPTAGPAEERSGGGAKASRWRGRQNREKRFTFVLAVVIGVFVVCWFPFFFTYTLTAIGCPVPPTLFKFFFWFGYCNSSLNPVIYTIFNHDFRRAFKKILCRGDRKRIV
As to the kind of experiment: Compound was evaluated for inhibition of binding of [3H]MK-91 to Alpha-2 adrenergic receptor in bovine pineal.

Test [4] deals with T3, Alpha-2A adrenergic receptor (Sus scrofa, UniProt P18871).
T3 sequence (P18871 whole entry): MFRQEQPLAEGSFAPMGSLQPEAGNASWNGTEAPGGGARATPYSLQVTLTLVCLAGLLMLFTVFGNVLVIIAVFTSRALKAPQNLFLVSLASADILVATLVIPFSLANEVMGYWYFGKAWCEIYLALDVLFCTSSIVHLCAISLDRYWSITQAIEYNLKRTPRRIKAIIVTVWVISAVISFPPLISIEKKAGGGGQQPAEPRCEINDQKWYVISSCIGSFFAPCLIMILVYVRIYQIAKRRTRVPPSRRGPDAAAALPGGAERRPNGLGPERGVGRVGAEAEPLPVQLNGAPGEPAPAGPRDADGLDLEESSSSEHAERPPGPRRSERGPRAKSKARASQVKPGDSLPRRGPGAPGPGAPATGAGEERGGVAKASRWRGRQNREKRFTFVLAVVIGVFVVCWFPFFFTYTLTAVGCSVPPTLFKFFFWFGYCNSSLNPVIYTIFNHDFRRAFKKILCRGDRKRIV
As to the kind of experiment: Compound was evaluated for inhibition of binding of [3H]MK-91 to Alpha-2 adrenergic receptor in porcine alpha2-clone.

In test [5] the target is T1, Alpha-2 adrenergic receptor. As to the kind of experiment: Compound was evaluated for inhibition of binding of [3H]-MK-91 to Alpha-2 adrenergic receptor in mouse NG-108 cells. In kind it is cell-based.

For orientation: Ki means a measure of affinity in units of concentration, obtained from inhibition or displacement. A lower Ki goes with tighter binding. Turning to `Cc1cc(C(C)(C)C)c(O)c(C)c1CC1=NCCN1` [OXYMETAZOLINE], the Ki amounted to 33 nM in test [1]; 109 nM in test [2]; 1.5 nM in test [3]; 21 nM in test [4]; 132 nM in test [5].
